Values of other authors, collected in patent US10300042B2, “Apremilast for the treatment of a liver disease or a liver function abnormality” (Celgene Corporation, priority 2014, dated 2019).

System: alanine aminotransferase and/or aspartate aminotransferase
Conditions: animal models and human studies; cited from earlier work

CC(=O)CCCCn1c(=O)c2c(ncn2C)n(C)c1=O [Pentoxifylline]
Liver Function Tests abnormalities (ALT, AST levels): decreasing levels of alanine aminotransferase and/or aspartate aminotransferase
